Test results reported in ChEMBL document CHEMBL1157256, “Junceellolides J-L, 11,20-epoxybriaranes from the gorgonian coral Junceella fragilis” (2006).

Legend:
[1] = system: Neutrophil; test: Inhibition of FMLP/cytochalasin B-stimulated elastase release in human neutrophils at 10 ug/mL relative to control; type: functional
[2] = Antioxidant activity in human neutrophils assessed as inhibition of superoxide generation at 10 ug/mL by colorimetric method relative to control; type: functional; conditions: Neutrophil

SMILES	inhibition at 10 µg/mL [1] [%]	inhibition at 10 µg/mL [2] [%]
CC(=O)O[C@H]1CC/C(C)=C\[C@@H]2OC(=O)[C@H](C)[C@@]2(O)[C@@H](OC(C)=O)[C@H]2[C@]3(CC[C@H](OC(C)=O)[C@]12C)CO3 [JUNCEELLOLIDE K]	15	13.9
CC(=O)O[C@H]1CC/C(C)=C\[C@@H]2OC(=O)[C@H](C)[C@@]2(O)[C@@H](OC(C)=O)[C@H]2[C@@]3(CC[C@H](OC(C)=O)[C@]12C)CO3	15.4	22.6
CC(=O)O[C@H]1CC[C@]2(CO2)[C@@H]2[C@H](OC(C)=O)[C@]3(O)[C@@H](C)C(=O)O[C@H]3[C@@H](O)[C@](C)(O)CC[C@H](OC(C)=O)[C@@]12C [JUNCEELLOLIDE L]	5.52	5.55
CC(=O)O[C@H]1CC[C@@]2(CO2)[C@@H]2[C@H](OC(C)=O)[C@]3(O)[C@@H](C)C(=O)O[C@H]3[C@@H]3O[C@]3(C)CC[C@H](OC(C)=O)[C@@]12C [JUNCEELLOLIDE J]	5.17	7.66
